From patent US20180327367A1, “MACROCYCLIC BROAD SPECTRUM ANTIBIOTICS” (priority 2015, published 2018)
≈ marks a conversion by molar mass, not a printed value. Where two headings read alike, the source gives them in different places.

Experiments:
[1] = molecular target: T1, SpsB (Staphylococcus aureus signal peptidase) (Staphylococcus aureus, UniProt P0A070); assay: cell-based; format: biochemical; settings: SpsB IC50, whole-cell S. aureus (USA300 background, overexpressing SpsB) as SpsB source; fluorogenic peptide substrate, kinetic read 30 min
T1 construct: This assay uses a suspension of Staphylococcus aureus cells as a source of SpsB instead of recombinant SpsB protein; endogenous in cells; host or cells: S. aureus, USA300 background, overexpressing SpsB (whole-cell suspension from frozen pellets)
T1 sequence (P0A070 whole entry): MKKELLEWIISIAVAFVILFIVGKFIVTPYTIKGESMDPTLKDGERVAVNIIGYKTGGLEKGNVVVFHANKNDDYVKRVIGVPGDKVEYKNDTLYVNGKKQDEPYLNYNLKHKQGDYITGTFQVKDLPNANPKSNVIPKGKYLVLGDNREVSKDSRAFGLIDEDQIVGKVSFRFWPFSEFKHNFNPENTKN
Outline: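 Whole S. aureus cells (USA300, overexpressing SpsB) in PBS with MgCl2, CaCl2 and 0.1% Tween-80 served as enzyme source, mixed with 20 μM stock of (Dabcyl)βAla-KPAKAAE(Edans) substrate before use. Fluorescence (ex 340/em 490 nm) read kinetically over 30 min. IC50 from reaction rate versus 11-point inhibitor concentration.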

[2] = tested on: Methicillin Resistant Staphylococcus aureus strain USA 300, NRS384; assay: Minimum inhibitory concentration, broth micro-dilution (CLSI), S. aureus; format: cell-based; settings: Staphylococcus aureus, MRSA / NRS 384 / USA300, 22 h, 35° C., 22 hours
Outline: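 Colonies grown 20 hours at 35° C were suspended in cation-adjusted Mueller Hinton Broth with 0.002% Tween-80. Cells were then added to 2-fold compound dilutions starting at 4 or 0.5 μg/mL, at OD600 0.0005.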

[3] = tested on: Escherichia coli ATCC 25922; assay: Minimum inhibitory concentration, broth micro-dilution (CLSI), E. coli; format: cell-based; settings: Escherichia coli, ATCC25922, 22 h, 35° C., 22 hours
[4] = tested on: Escherichia coli MC4100 harboring the IMP4213 (E. coli IMP); assay: microbe, parasite or virus in culture; format: cell-based; settings: Escherichia coli, 22 h, read-out: MIC (μg/mL) E. coli IMP, E. coli MC4100 IMP4213, increased outer-membrane permeability; 35° C., 22 hours
Outline: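 Broth micro-dilution per CLSI in cation-adjusted Mueller Hinton Broth with 0.002% Tween-80; E. coli MC4100 carries IMP4213, raising outer-membrane permeability. Compounds tested as 2-fold serial dilutions (10 concentrations) from 4 μg/mL (protocol 2) or 0.5 μg/mL (protocol 3); inoculum OD600 0.0005, 35° C for 22 hours.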

[5] = MRSA USA 300 NRS384, read-out: MIC (μg/mL) S. aureus
[6] = E. coli ATCC 25922, read-out: MIC (μg/mL) E. coli
[7] = read-out: MIC (μg/mL) S. aureus, MRSA USA 300 NRS384
[8] = read-out: MIC (μg/mL) E. coli, E. coli ATCC 25922

## CCCCCCCS(=O)(=O)c1ccc(C(=O)N[C@@H](CCN)C(=O)N(C)[C@@H]2C(=O)N[C@@H](C)C(=O)N[C@H](C(=O)NCC#N)Cc3ccc(OCCN)c(c3)-c3cc2ccc3OCCN)c(C)c1 [Compound 390]
[1]
  IC50: 1.1 nM
[2]; [5]
  MIC: 0.13 µg/mL (≈ 0.142 µM)
[3]; [6]
  MIC: 3 µg/mL (≈ 3.27 µM)
[4]
  MIC: 0.031 µg/mL (≈ 0.0338 µM)

## CCCCCCSc1ccc(C(=O)N[C@@H](CCN)C(=O)N(C)[C@@H]2C(=O)N[C@@H](C)C(=O)N[C@H](C(=O)NCC#N)Cc3ccc(OCCN)c(c3)-c3cc2ccc3OCCN)c(C)c1 [Compound 391]
[1]
  IC50: 0.99 nM
[2]; [5]
  MIC: 0.047 µg/mL (≈ 0.0539 µM)
[3]; [6]
  MIC: 0.5 µg/mL (≈ 0.573 µM)
[4]
  MIC: 0.016 µg/mL (≈ 0.0183 µM)

## CCCCCCCCCCN[C@@H](CO)C(=O)N(C)[C@@H]1C(=O)N[C@@H](C)C(=O)N[C@H](C(=O)NCC#N)Cc2ccc(OCCN)c(c2)-c2cc1ccc2OCCN [Compound 400]
[1]
  IC50: 5 nM
[2]; [7]
  MIC: 0.25 µg/mL (≈ 0.327 µM)
[3]; [8]
  MIC: > 64 µg/mL
[4]
  MIC: 2 µg/mL (≈ 2.61 µM)

## CCCCCCCCCCCNC(=O)N[C@@H](CCN)C(=O)N(C)[C@@H]1C(=O)N[C@@H](C)C(=O)N[C@H](C(=O)NCC#N)Cc2ccc(OCCN)c(c2)-c2cc1ccc2OCCN [Compound 403]
[1]
  IC50: < 0.5 nM
[2]; [5]
  MIC: 0.029 µg/mL (≈ 0.0347 µM)
[3]; [6]
  MIC: 1.3 µg/mL (≈ 1.56 µM)
[4]
  MIC: 0.023 µg/mL (≈ 0.0275 µM)

## CCCCCCc1ccc(NC(=O)N[C@@H](CCN)C(=O)N(C)[C@@H]2C(=O)N[C@@H](C)C(=O)N[C@H](C(=O)NCC#N)Cc3ccc(OCCN)c(c3)-c3cc2ccc3OCCN)c(C)c1 [Compound 404]
[1]
  IC50: 0.88 nM
[2]; [7]
  MIC: 0.063 µg/mL (≈ 0.0737 µM)
[3]; [8]
  MIC: 2 µg/mL (≈ 2.34 µM)
[4]
  MIC: 0.047 µg/mL (≈ 0.055 µM)

## CCCCCCCCCCC(C)(C)C(=O)N[C@@H](CCN)C(=O)N(C)[C@@H]1C(=O)N[C@@H](C)C(=O)N[C@H](C(=O)NCC#N)Cc2ccc(OCCN)c(c2)-c2cc1ccc2OCCN [Compound 406]
[1]
  IC50: 1.2 nM
[2]; [5]
  MIC: 0.063 µg/mL (≈ 0.0743 µM)
[3]; [6]
  MIC: 2 µg/mL (≈ 2.36 µM)
[4]
  MIC: 0.031 µg/mL (≈ 0.0366 µM)

## CCCCCCCCc1ccc(C(=O)N[C@@H](CCN)C(=O)N(C)[C@@H]2C(=O)N[C@@H](C)C(=O)N[C@H](C(=O)NCC#N)Cc3ccc(OCCN)c(c3)-c3cc2ccc3OCCN)c(OCC(N)=O)c1 [Compound 407]
[1]
  IC50: 1.1 nM
[2]; [5]
  MIC: 0.047 µg/mL (≈ 0.0507 µM)
[3]; [6]
  MIC: 4 µg/mL (≈ 4.31 µM)
[4]
  MIC: 0.047 µg/mL (≈ 0.0507 µM)

## CCCCCCCC(F)(F)c1ccc(C(=O)N[C@@H](CCN)C(=O)N(C)[C@@H]2C(=O)N[C@@H](C)C(=O)N[C@H](C(=O)NCC#N)Cc3ccc(OCCN)c(c3)-c3cc2ccc3OCCN)c(Cl)c1 [Compound 412]
[1]
  IC50: 0.6 nM
[2]; [7]
  MIC: 0.031 µg/mL (≈ 0.0335 µM)
[3]; [8]
  MIC: 0.13 µg/mL (≈ 0.141 µM)
[4]
  MIC: 0.012 µg/mL (≈ 0.013 µM)

## CCCCCCCC(=O)c1ccc(C(=O)N[C@@H](CCN)C(=O)N(C)[C@@H]2C(=O)N[C@@H](C)C(=O)N[C@H](C(=O)NCC#N)Cc3ccc(OCCN)c(c3)-c3cc2ccc3OCCN)c(Cl)c1 [Compound 413]
[1]
  IC50: 0.88 nM
[2]; [5]
  MIC: 0.031 µg/mL (≈ 0.0343 µM)
[3]; [6]
  MIC: 0.25 µg/mL (≈ 0.277 µM)
[4]
  MIC: 0.0078 µg/mL (≈ 0.00864 µM)

## CCCCCCCCCCNCCC(=O)N[C@@H](CCCCN)C(=O)N(C)[C@@H]1C(=O)N[C@@H](C)C(=O)N[C@H](C(=O)NC(C)C#N)Cc2ccc(OCCN)c(c2)-c2cc1ccc2OCCN (some centres unmarked) [Compound 415]
[1]
  IC50: 14 nM
[2]; [7]
  MIC: > 4 µg/mL
[3]; [8]
  MIC: 64 µg/mL (≈ 71.8 µM)
[4]
  MIC: 4 µg/mL (≈ 4.49 µM)

## CCCCCCCCCCCC(=O)N[C@@H](CO)C(=O)N(C)[C@@H]1C(=O)N[C@@H](C)C(=O)N[C@H](C(=O)N[C@H](C#N)C2CC2)Cc2ccc(OCCN)c(c2)-c2cc1ccc2OCCN [Compound 420]
[1]
  IC50: 8.4 nM
[2]; [5]
  MIC: 4 µg/mL (≈ 4.72 µM)
[3]; [6]
  MIC: 24 µg/mL (≈ 28.3 µM)
[4]
  MIC: 1 µg/mL (≈ 1.18 µM)

## CCCCCCCCc1cccc(C(=O)N[C@@H](CCCCN)C(=O)N(C)[C@@H]2C(=O)N[C@@H](C)C(=O)N[C@H](C(=O)NCC#N)Cc3ccc(OCCN)c(c3)-c3cc2ccc3OCCN)c1 [Compound 421]
[1]
  IC50: 1.6 nM
[2]; [5]
  MIC: 0.063 µg/mL (≈ 0.0714 µM)
[3]; [6]
  MIC: 2 µg/mL (≈ 2.27 µM)
[4]
  MIC: 0.063 µg/mL (≈ 0.0714 µM)

## CCCCCCCCc1ccc(C)c(C(=O)N[C@@H](CCCCN)C(=O)N(C)[C@@H]2C(=O)N[C@@H](C)C(=O)N[C@H](C(=O)NCC#N)Cc3ccc(OCCN)c(c3)-c3cc2ccc3OCCN)c1 [Compound 422]
[1]
  IC50: 1.1 nM
[2]; [5]
  MIC: 0.063 µg/mL (≈ 0.0703 µM)
[3]; [6]
  MIC: 1.5 µg/mL (≈ 1.67 µM)
[4]
  MIC: 0.031 µg/mL (≈ 0.0346 µM)

## C[C@@H]1NC(=O)[C@@H](N(C)C(=O)[C@H](CCN)NC(=O)c2ccc(C#Cc3ccccc3)cc2F)c2ccc(OCCN)c(c2)-c2cc(ccc2OCCN)C[C@@H](C(=O)NCC#N)NC1=O [Compound 423]
[1]
  IC50: 0.85 nM
[2]; [7]
  MIC: 0.063 µg/mL (≈ 0.0733 µM)
[3]; [8]
  MIC: 0.44 µg/mL (≈ 0.512 µM)
[4]
  MIC: 0.014 µg/mL (≈ 0.0163 µM)
